Data taken from patent publication US20240272171A1, “Methods for Identification of Exchangeable MHC Binding Peptides and Methods of Use Thereof” (PhenomeX Inc., priority 2020, published 2024).
Values belong to the sequence of their own block, whether it stands above or below them.

What was measured:
HLA-A*02:01 [1] = biological target: T1, HLA-A*02:01 (Homo sapiens, UniProt P04439, D140Y/D185E/D98H/E176V/E277Q/G131W/G231S/I119V/I121R/I166T/I218V/L300P/L318F/N151K/N90K/P208A/P217A/Q86G/Q94H/R138H/R169H/T345S); assay: Peptide binding and stability under culture conditions (Example 22); conditions: beads in T Cell Culture Media at 37° C.; W6/32 antibody MFI, exponential decay fit
Procedure: To assess the stability of the pMHC Class I-peptide antigen complexes under the conditions that are used to culture T Cells, pMHC Class I complexes were first bound to beads. Biotinylated HLA-A*02:01 complexes loaded with either […] (SEQ ID NO: 5) or […] (SEQ ID NO: 6) peptides were diluted to 0.83 micrograms/mL in Assay Buffer (PBS with 2 mM EDTA and 0.1% Bovine Serum Albumin). To 0.6 mL of the pMHC solutions in microcentrifuge tubes, […] Streptavidin-coated DynaBeads (M-280, ThermoFisher) were added. The beads were mixed in the pMHC solution for 4 minutes at 2,000 rpm on a ThermoMixer (Eppendorf). The pMHC-beads were then captured on a magnetic rack, and the solution containing unbound pMHC removed by aspiration. 1 mL of Assay Buffer was added to the tubes, and then aspirated. The beads were then resuspended in 0.1 mL of Assay Buffer. The beads were then stored at 4° C. until use. […]
Antibody binding to the beads was then detected on a FACSCelesta with High-Throughput Sampler (BD Biosciences). […] Approximately 25,000 bead events were recorded for each sample. The Median Fluorescence Intensity (MFI) in the APC channel for the pHLA-beads in each sample was then recorded. […] The half-lives for the pHLA complexes were then calculated from the fitted decay constant.

HLA-A*02:01 [2] = biological target: T1, HLA-A*02:01; assay: Candidate in-place peptide exchange testing (loss of FITC signal, flow cytometry); type: binding; conditions: for exchange efficiency: FITC in-place peptide, 1 micromolar pHLA, 20 micromolar incoming peptide LMYAKRAFV, 10 mM GlyCha, room temperature, 4 hour; for suitability as in-place peptide (affinity and exchangeability): HLA-A*02:01, FIG. 29
Source text: Candidate peptides with a FITC-modified Lysine at Position 4 or 5 shown in Table 6 were purchased from a peptide manufacturer (Genscript). The fluorescent peptides were loaded into recombinant, biotinylated HLA-A*02:01 by a contract manufacturer (Biolegend). […] The peptide-HLA (pHLA) concentration in the reactions was 1 micromolar. The incoming peptide concentration was 20 micromolar.
For the incoming peptide, the peptide sequence […] […] This may be used as a model for candidate antigenic peptides, which need to displace an in-place peptide stabilizing the MHC (e.g., loaded into the MHC complex), in methods of discovering antigenic peptides and methods of activating lymphocytes as described throughout the specification.
After four hours, exchanged, unexchanged and non-fluorescent biotinylated HLA complexes were loaded onto Streptavidin coated capture beads. The HLA complex coated beads were analyzed for FITC Fluorescence on a Flow Cytometer.

HLA-A*02:01 [3] = biological target: T1, HLA-A*02:01; assay: Peptide switching on peptide-HLA-A*02:01 complex with DNP-labelled initial peptide (Example 21); type: binding

Sequence: SLYSYFQKV [Immunogenic peptide antigen derived from SLC45A2] [listing 1 of 2 here]
half-life of peptide-HLA-A*02:01 complex (HLA-A*02:01 [1]): about 17 hours

exchange efficiency (HLA-A*02:01 [2]): about 0.65
Sequence: FLAIKKLYVG

Sequence: SLYSYFQKV [Immunogenic peptide antigen derived from SLC45A2] [listing 2 of 2 here]
percent peptide switching (HLA-A*02:01 [3]): about 99%

suitability as in-place peptide (affinity and exchangeability) (HLA-A*02:01 [2]): most suitable in-place peptides
Sequence: GAATKMAAV

Sequence: SLLPIMWQLY [Non-Immunogenic peptide antigen derived from TCL1] [listing 1 of 2 here]
half-life of peptide-HLA-A*02:01 complex (HLA-A*02:01 [1]): about 0.5 hours

Sequence: SLLPIMWQLY [Non-Immunogenic peptide antigen derived from TCL1] [listing 2 of 2 here]
percent peptide switching (HLA-A*02:01 [3]): about 90%

exchange efficiency (HLA-A*02:01 [2]): about 0.30
Sequence: LMYAKRAFV [TBA1A (Q71U36) 397-405; used as initial peptide and as incoming/displacing peptide]

exchange efficiency (HLA-A*02:01 [2]): about 1.0
suitability as in-place peptide (affinity and exchangeability) (HLA-A*02:01 [2]): most suitable in-place peptides
Sequence: GMGQKDSYV [ACTB (P60709) 46-54]
